One assay concerns the target T1, TYRO3 (Homo sapiens, UniProt Q06418).
T1 sequence (Q06418 41-890): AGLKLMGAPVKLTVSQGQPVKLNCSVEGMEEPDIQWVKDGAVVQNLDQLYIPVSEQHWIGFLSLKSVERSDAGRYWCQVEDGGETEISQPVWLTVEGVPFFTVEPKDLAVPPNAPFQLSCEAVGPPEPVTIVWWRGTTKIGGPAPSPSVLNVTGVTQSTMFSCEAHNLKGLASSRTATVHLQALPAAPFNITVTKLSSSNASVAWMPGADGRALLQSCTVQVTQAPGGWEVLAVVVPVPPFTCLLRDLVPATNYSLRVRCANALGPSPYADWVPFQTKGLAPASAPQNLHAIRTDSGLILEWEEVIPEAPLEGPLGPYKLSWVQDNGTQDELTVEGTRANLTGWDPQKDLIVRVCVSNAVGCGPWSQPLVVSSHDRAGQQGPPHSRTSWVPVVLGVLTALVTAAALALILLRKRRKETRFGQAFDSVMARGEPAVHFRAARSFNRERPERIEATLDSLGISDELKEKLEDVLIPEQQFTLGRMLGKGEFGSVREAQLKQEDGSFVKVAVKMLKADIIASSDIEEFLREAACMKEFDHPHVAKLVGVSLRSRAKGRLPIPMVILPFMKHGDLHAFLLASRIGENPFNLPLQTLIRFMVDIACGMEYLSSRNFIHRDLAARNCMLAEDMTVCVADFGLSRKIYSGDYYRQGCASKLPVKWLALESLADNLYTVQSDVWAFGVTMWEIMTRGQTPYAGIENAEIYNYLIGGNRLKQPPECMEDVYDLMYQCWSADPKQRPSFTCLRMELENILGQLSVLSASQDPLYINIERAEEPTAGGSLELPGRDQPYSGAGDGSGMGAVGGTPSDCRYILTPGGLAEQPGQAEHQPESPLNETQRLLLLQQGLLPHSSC
Description: TR-FRET kinase activity assay, TYRO3. It is filed as biochemical. Particulars: ATP at Km, 60 minutes. In short, it runs like this: (§1)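 IC50s come from loss of TR-FRET between a Eu-labeled phospho-site antibody and fluorescent tyrosine-phosphorylated peptide. Kinase reactions, initiated with Km ATP, ran 60 min at RT at pH 7.5 before EDTA quench.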

In another assay the target is T2, MERTK (Homo sapiens, UniProt Q12866).
T2 sequence (Q12866 21-999): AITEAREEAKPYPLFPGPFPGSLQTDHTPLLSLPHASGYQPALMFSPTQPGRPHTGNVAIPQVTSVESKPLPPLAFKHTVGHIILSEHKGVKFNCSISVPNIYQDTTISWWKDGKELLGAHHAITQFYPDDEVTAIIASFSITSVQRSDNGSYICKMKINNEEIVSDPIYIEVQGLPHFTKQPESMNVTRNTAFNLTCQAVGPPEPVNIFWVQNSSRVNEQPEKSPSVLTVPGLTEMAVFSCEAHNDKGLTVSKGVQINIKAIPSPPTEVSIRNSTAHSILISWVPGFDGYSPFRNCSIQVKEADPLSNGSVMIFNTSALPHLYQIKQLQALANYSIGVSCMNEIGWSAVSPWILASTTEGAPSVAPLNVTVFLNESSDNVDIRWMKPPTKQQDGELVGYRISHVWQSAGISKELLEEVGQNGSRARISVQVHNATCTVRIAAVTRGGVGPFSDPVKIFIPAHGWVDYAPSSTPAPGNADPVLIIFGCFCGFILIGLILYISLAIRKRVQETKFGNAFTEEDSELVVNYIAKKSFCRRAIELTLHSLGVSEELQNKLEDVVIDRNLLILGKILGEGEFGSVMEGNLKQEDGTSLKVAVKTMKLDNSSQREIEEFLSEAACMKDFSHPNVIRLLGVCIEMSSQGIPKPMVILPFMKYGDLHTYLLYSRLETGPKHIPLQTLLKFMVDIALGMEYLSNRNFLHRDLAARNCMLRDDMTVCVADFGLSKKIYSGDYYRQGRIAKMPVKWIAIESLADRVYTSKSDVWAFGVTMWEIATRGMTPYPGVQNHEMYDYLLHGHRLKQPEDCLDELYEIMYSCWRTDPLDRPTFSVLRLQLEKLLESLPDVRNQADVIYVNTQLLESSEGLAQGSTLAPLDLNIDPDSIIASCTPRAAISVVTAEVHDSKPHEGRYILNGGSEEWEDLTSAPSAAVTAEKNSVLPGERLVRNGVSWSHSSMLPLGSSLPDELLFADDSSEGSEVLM
The assay can be described thus: TR-FRET kinase activity assay, MERTK. It is filed as biochemical. Particulars: for IC50: TR-FRET activity assay, ATP at Km, 60 minutes, read-out: Mer IC50; for Mer/Flt3 ratio (FLT3 IC50/Mer IC50): ratio calculated as FLT3 IC50/Mer IC50. The method in brief:
as §1

Structures are written as SMILES.

Here are results for 9 molecules from US20200291018A1, “TAM KINASE INHIBITORS” (SYROS PHARMACEUTICALS, INC., priority 2017, published 2020).

`O[C@H]1CC[C@H](c2cnc(OC3CCNCC3)c3cnc(Nc4ccc(F)cc4)nc32)CC1` [Compound 269]: the 50% inhibitory concentration (IC50) against TYRO3 is no more than 100 nM. Moreover, at MERTK, the IC50 was no more than 100 nM; the “Mer/Flt3 ratio (FLT3 IC50/Mer IC50)” value was “+ (a ratio of >2.0 and <10)”.
Turning to `O[C@H]1CC[C@H](c2cnc(OC3CCNCC3)c3cnc(Nc4cccc(F)c4)nc32)CC1` [Compound 270], the IC50 against TYRO3 and at MERTK was no more than 100 nM throughout. Besides, the “Mer/Flt3 ratio (FLT3 IC50/Mer IC50)” value at MERTK was “+ (a ratio of >2.0 and <10)”.
For the molecule `CC[C@H](C)Nc1ncc2c(=O)n(-c3ccc(N)cc3)cc([C@H]3CC[C@H](O)CC3)c2n1` [Compound 271], the IC50 against TYRO3 was 100 to 1000 nM; on MERTK, no more than 100 nM. For the same molecule, on MERTK, the “Mer/Flt3 ratio (FLT3 IC50/Mer IC50)” value is on record as “+++ (a ratio of >100)”.
As for `COC(=O)c1ccc(Nc2ncc3c(OC4CCNCC4)ncc([C@H]4CC[C@H](O)CC4)c3n2)cc1` [Compound 272], the IC50 on TYRO3 is no more than 100 nM. In addition, on MERTK, the IC50 is no more than 100 nM; the “Mer/Flt3 ratio (FLT3 IC50/Mer IC50)” value was “+ (a ratio of >2.0 and <10)”.
Take `CCOc1ncc([C@H]2CC[C@H](O)CC2)c2nc(N[C@@H](C)COC)ncc12` [Compound 273]: on TYRO3, the IC50 lay in the range of 100 to 1000 nM. In addition, at MERTK, the IC50 was no more than 100 nM and the “Mer/Flt3 ratio (FLT3 IC50/Mer IC50)” value was “+++ (a ratio of >100)”.
Take `CC(C)Nc1ncc2c(OC3CCOCC3)ncc(-c3cccc(CC#N)c3)c2n1` [Compound 274]: the IC50 against TYRO3 was 100 to 1000 nM. At MERTK, the IC50 is no more than 100 nM; the “Mer/Flt3 ratio (FLT3 IC50/Mer IC50)” value is “++ (a ratio of between 10 and 100)”.
Consider `CC[C@H](C)Nc1ncc2c(OC3C[C@@H](C)O[C@@H](C)C3)ncc([C@H]3CC[C@H](O)CC3)c2n1` (stereo partly drawn) [Compound 275], for which the IC50 on TYRO3 fell in the range of 100 to 1000 nM. Also, on MERTK, the IC50 was no more than 100 nM and the “Mer/Flt3 ratio (FLT3 IC50/Mer IC50)” value is reported as “+++ (a ratio of >100)”.
`CC(C)Nc1ncc2c(OC3CCOCC3)ncc(-c3cccc(CC(=O)O)c3)c2n1` [Compound 276] displayed an IC50 on TYRO3 of 100 to 1000 nM. In addition, on MERTK, the IC50 lay in the range of 1000 to 10000 nM; the “Mer/Flt3 ratio (FLT3 IC50/Mer IC50)” value is “++ (a ratio of between 10 and 100)”.
The molecule `O[C@H]1CC[C@H](c2cnc(OC3CCOCC3)c3cnc(N[C@H]4CCNC4)nc32)CC1` [Compound 277] had an IC50 against TYRO3 of 1000 to 10000 nM. Moreover, at MERTK, the IC50 was in the range of 1000 to 10000 nM and the “Mer/Flt3 ratio (FLT3 IC50/Mer IC50)” value was “NS (a ratio of ≤2.0)”.
